A short description of assay [1]: P. falciparum Dd2 growth inhibitors, dose response, SYBR Green, dry powder samples, set 4 (AID 1159572). Type of assay: functional, cell-based.
The target of assay [2] is T1, Genome polyprotein (Hepatitis C virus, UniProt Q2Q167). In words: HCV core protein dimerization inhibitors, dose response, biochemical, TR-FRET (AID 2159).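 Note: blocks dimerization of HCV core protein measured by TR-FRET between tagged core106 pairs.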 On the set-up: species or system Hepacivirus hominis.
T1 sequence (Q2Q167 whole entry): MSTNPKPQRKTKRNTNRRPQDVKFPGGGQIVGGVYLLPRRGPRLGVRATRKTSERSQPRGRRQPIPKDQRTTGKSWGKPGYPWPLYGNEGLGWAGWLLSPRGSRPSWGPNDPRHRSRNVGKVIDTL
Assay [3] concerns the target T2, Bcl-2-related protein A1 (Mus musculus, UniProt Q07440).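 Note: confirmatory dose–response counterscreen on Bfl-1, used to check hits from a UBC13 polyubiquitin inhibitor campaign.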
T2 sequence (Q07440 whole entry): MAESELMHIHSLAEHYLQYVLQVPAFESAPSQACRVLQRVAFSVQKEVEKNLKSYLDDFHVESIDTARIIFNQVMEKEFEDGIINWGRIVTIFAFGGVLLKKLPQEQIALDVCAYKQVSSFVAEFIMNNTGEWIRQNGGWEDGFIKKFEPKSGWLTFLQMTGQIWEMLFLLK
Type of assay: functional.

Assay [4] concerns the target T3, Ubiquitin-conjugating enzyme E2 N (Homo sapiens, UniProt P61088).
T3 sequence (P61088 whole entry): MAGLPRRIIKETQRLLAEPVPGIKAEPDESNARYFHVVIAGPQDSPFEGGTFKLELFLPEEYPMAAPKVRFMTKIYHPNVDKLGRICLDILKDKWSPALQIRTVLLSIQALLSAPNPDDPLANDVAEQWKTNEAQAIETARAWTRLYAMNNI
Type of assay: functional.

The target of assay [5] is T3, Ubiquitin-conjugating enzyme E2 N. Type of assay: functional. This is another data set of the same source.
The target of assay [6] is T1, Genome polyprotein. In words: Late stage assay provider counterscreen results for the probe development effort to identify inhibitors of Hepatitis C Virus (HCV) core protein dimerization: Luminescence-based biochemical AlphaScreen assay to identify inhibitors of HCV core dimerization. Type of assay: functional, Hepacivirus hominis.
The nature of assay [7]: P. falciparum Dd2 growth inhibitors, dose response, SYBR Green, dry powder samples, set 9 (AID 1159568). Type of assay: functional, cell-based.
Assay [8] is described as follows: P. falciparum Dd2 growth inhibitors, dose response, SYBR Green, cherry-picked samples (AID 1159567). Type of assay: functional, cell-based.
Assay [9] can be described thus: HepG2 cell cytotoxicity, dose response, cytotoxicity control, cherry-picked samples (AID 1159577). Type of assay: functional, cell-based.
For assay [10], the target named is Metabotropic glutamate receptor 7 (Homo sapiens, UniProt Q14831). In words: mGlu7 positive allosteric modulators, dose response, cell-based, calcium mobilization, Galpha15 (AID 743384). It is filed as functional. Background: Calcium flux is commonly read through the fluorescence of an indicator in the cells.
Metabotropic glutamate receptor 7, sequence (Q14831 whole entry): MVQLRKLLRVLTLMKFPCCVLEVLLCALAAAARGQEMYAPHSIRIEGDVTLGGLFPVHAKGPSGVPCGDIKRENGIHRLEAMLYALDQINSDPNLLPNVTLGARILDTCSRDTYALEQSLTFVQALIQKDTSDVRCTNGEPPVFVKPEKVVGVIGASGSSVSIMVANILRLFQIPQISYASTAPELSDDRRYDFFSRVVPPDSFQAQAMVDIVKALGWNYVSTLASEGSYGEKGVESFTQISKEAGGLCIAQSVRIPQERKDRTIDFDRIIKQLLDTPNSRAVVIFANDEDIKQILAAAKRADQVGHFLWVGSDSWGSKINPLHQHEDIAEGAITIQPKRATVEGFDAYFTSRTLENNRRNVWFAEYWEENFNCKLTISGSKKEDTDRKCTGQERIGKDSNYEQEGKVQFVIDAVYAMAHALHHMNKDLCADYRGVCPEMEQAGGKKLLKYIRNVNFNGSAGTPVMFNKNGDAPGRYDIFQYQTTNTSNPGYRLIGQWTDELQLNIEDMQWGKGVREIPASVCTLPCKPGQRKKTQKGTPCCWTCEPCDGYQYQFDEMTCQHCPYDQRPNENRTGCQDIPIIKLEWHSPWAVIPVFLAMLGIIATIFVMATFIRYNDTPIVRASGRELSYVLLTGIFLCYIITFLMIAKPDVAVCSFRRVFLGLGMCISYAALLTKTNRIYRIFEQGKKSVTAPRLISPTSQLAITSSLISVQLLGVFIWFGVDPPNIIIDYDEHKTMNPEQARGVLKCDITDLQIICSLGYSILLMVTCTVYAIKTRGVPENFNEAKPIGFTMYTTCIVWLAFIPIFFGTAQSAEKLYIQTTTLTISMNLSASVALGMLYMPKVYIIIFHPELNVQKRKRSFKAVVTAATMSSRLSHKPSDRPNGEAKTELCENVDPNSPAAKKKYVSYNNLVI
The target in assay [11] is T4, Calpain-2 catalytic subunit (Sus scrofa, UniProt P43367).
T4 sequence (P43367 whole entry): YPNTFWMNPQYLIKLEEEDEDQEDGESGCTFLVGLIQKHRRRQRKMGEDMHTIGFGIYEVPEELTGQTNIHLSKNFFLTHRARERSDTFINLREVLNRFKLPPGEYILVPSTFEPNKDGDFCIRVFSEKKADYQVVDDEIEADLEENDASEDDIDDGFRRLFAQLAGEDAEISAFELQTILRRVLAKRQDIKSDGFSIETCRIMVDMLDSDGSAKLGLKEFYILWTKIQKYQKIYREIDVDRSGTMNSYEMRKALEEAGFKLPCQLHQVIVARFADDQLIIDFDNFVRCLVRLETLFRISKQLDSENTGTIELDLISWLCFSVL
In words: pig calpain II inhibitor potency, dose response, biochemical, fluorogenic peptide substrate (AID 1420). It is filed as functional.

Assay [12] can be described thus: Vero cell cytotoxicity, dose response, cytotoxicity control for Vif-APOBEC3G degradation inhibitor project, Vero cells (AID 1117358). As to conditions: Human immunodeficiency virus 1, Vero. It is filed as functional.
Assay [13] is described as follows: P. falciparum 3D7-ScDHODH growth inhibitors, dose response, SYBR Green, dry powder samples (AID 1159570).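 Note: parasite growth measured after 72 hours of compound exposure.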 Type of assay: functional, cell-based.
Assay [14] can be described thus: HepG2 cell cytotoxicity, dose response, cytotoxicity control, plate reader, dry powder samples (AID 1159569).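 Note: inhibitor potency with signal falling toward the positive control level.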 Type of assay: functional, cell-based.
Assay [15] can be described thus: P. falciparum Dd2 blood-stage growth inhibition, dose response, SYBR Green fluorescence, erythrocytes, dry powder, set 2 (AID 1159574). It is filed as functional, cell-based.
The nature of assay [16]: P. falciparum Dd2 growth inhibitors, dose response, SYBR Green, dry powder samples (AID 1159566).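 Note: potency for growth inhibition with lower SYBR green DNA signal.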 Type of assay: functional, cell-based.
The nature of assay [17]: P. falciparum ATP4 D1247Y mutant growth inhibitors, dose response, NITD609-resistant line, SYBR Green, dry powder (AID 1159571).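 Note: parasites synchronized at ring stage by sorbitol before testing.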 It is filed as functional, cell-based.
A short description of assay [18]: HEp-2 cell cytotoxicity, dose response, cytotoxicity control for RSV inhibitor project, HTS (AID 2410). It is filed as functional. As to conditions: human respiratory syncytial virus.
For assay [19], the system named is Streptococcus sp. 'group A'. In words: growth inhibition of control SK(-) GAS strain, dose response, counter-screen for streptokinase expression inhibitor project, luminescence, kanamycin, BacTiterGlo, confirmation (AID 1900). Type of assay: functional, organism-based. For orientation: The purpose of a counterscreen is to sort out artefacts and off-target activity.

Assay [20] concerns the target T5, Streptokinase A (Streptococcus pyogenes serotype M1, UniProt P10520).
T5 sequence (P10520 whole entry): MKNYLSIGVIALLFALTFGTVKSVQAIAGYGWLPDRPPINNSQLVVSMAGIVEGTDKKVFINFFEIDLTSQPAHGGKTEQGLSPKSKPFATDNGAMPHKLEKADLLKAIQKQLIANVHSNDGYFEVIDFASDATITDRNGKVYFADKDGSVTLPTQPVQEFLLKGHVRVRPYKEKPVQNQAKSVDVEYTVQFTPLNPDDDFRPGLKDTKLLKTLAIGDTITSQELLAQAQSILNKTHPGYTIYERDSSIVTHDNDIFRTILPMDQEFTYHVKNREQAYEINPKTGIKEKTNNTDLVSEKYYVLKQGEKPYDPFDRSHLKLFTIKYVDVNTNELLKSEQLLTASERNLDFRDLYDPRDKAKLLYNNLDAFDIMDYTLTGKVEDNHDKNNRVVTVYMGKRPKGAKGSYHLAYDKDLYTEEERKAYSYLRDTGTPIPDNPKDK
In words: S. pyogenes streptokinase expression inhibitors, potency, dose response, plasminogen activation absorbance, OD405 (AID 1914).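 Note: secreted streptokinase activity via plasminogen activation per viability signal from cell pellet.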 Type of assay: functional, Streptococcus pyogenes M1 GAS.

Assay [21] in a line: M. tuberculosis growth inhibition, HTS (AID 449762). It is filed as functional.
For assay [22], the system named is Streptococcus. In words: Group A Streptococcus viability loss, dose response, counter-screen for streptokinase expression inhibitor project, luminescence, BacTiterGlo (AID 1915).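 Note: potency for reduction of bacterial viability or growth.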 Type of assay: functional, organism-based.

Activity calls are given as the source filed them. Where only a bound is given, the exact number is not on record here.

One may read the AC50 as the midpoint of the concentration-response curve, whichever way the signal moves. `CCC(=O)N1CCC2(CC1)CN(C(C)=O)[C@@H](CO)c1[nH]c3cc(OC)ccc3c12`: the AC50 in [1] was 20.1 µM (active).
What is called IC50 is the concentration that inhibits the measured activity by half. Consider `Cc1ccc(Cc2c(C)nc3nc(SCC(=O)NCCCN4CCCCCC4)nn3c2C)cc1`, for which the IC50 in assay [2] was 9.87 µM (active); in assay [3], > 20 µM (inactive); in assay [4], 13.2 µM (active); in [5] it was > 20 µM (inactive); in assay [6], 5 µM (active).
In the case of `COc1ccccc1NC(=O)N1C[C@@H]2N[C@H](C1)[C@@H]2c1ccc(/C=C/c2ccccc2)cc1`, the AC50 in [7] was 8.73 µM (active); in assay [8], 1.96 µM (active); in assay [9], 9.74 µM (active).
As a reminder, the EC50 is the concentration needed to bring the measured effect to its halfway point. In the case of `COC(=O)c1ccc(-n2c(C)cc(C(=O)CSCc3cccc(C)c3)c2C)cc1`, in [10], the EC50 was 10 µM (active).
What is called CC50 is the concentration at which the toxic effect on the cells reaches its halfway point. In the case of `O=[N+]([O-])c1ccc(NCCCNS(=O)(=O)c2ccc(Cl)cc2)c(Cl)c1`, the IC50 in [11] was 3.17 µM (not active). Moreover, the CC50 in [12] was > 40 µM (active).
`COc1ccc(S(=O)(=O)N(C)C[C@@H]2OCc3ccccc3-c3c(n(C)c4ccccc34)C(=O)N([C@@H](C)CO)C[C@@H]2C)cc1`: the AC50 is 0.126 µM (active) in [13]; 84.3 µM (active) in assay [14]; 0.689 µM (active) in assay [8]; 0.853 µM (active) in [15]; 0.0794 µM (active) in assay [16]; 0.115 µM (active) in assay [17].
`Oc1ccc(/C=N/n2c3ccccc3c3ccccc32)cc1`: the CC50 in [18] was 17.2 µM (active). Further, the EC50 was 6.24 µM (active) in assay [19], > 150 µM (not active) in assay [20] and 10.8 µM (active) in assay [22]. Moreover, the IC50 in [21] was > 100 µM (active).
